In ChEMBL document CHEMBL3112418, “Synthesis of novel 1,2,3-triazole tagged pyrazolo[3,4-b]pyridine derivatives and their cytotoxic activity” (Bioorg Med Chem Lett, 2014) one finds Activity and IC50 data, which are given here for 28 compounds.

Values after ≈ are worked out from the molar mass of the structure shown. Active and inactive are the calls of the source. The calls are words filed in the database; no cut-off is given here.

Common to all, as to assay type: functional, cell-based
One assay relates to U-937. In words: Cytotoxicity against human U937 cells assessed as reduction in cell viability at 100 ug/ml after 24 hrs by MTT assay. A general note: Formazan colour is commonly taken as a measure of viable cells.
Assay [1] relates to THP-1. In words: Cytotoxicity against human THP1 cells assessed as reduction in cell viability at 100 ug/ml after 24 hrs by MTT assay.
Assay [2] concerns B16-F10. In words: Cytotoxicity against mouse B16F10 cells assessed as reduction in cell viability at 100 ug/ml after 24 hrs by MTT assay.
Assay [3] has as its system HL-60. In words: Cytotoxicity against human HL60 cells assessed as reduction in cell viability at 100 ug/ml after 24 hrs by MTT assay.
The nature of assay [4]: Cytotoxicity against human U937 cells assessed as reduction in cell viability after 24 hrs by MTT assay. The note with it: U-937, 24 h.
Assay [5] deals with THP-1. In words: Cytotoxicity against human THP1 cells assessed as reduction in cell viability after 24 hrs by MTT assay. The note with it: THP-1, 24 h.
For assay [6], the system named is HL-60. In words: Cytotoxicity against human HL60 cells assessed as reduction in cell viability after 24 hrs by MTT assay. Particulars: HL-60, 24 h.
Assay [7] deals with B16-F10. In words: Cytotoxicity against mouse B16F10 cells assessed as reduction in cell viability after 24 hrs by MTT assay. The note with it: B16-F10, 24 h.

In the case of `CCCCCCCCn1cc(Cn2nc(N)c3c(C(F)(F)F)cc(-c4ccccc4)nc32)nn1`, the result in the assay with U-937, in the assay with THP-1 [1], in the assay with B16-F10 [2] and in the assay with HL-60 [3] was inactive.
Regarding `Nc1nn(Cc2cn(-c3ccc(Br)c(F)c3)nn2)c2nc(-c3ccccc3)cc(C(F)(F)F)c12`, the result in the assay with U-937, with THP-1 [1], with B16-F10 [2] and in the assay with HL-60 [3] was inactive.
Consider `Cc1c(Br)cccc1-n1cc(Cn2nc(N)c3c(C(F)(F)F)cc(-c4ccccc4)nc32)nn1`, for which the result with THP-1 [1], in the assay on B16-F10 [2] and with HL-60 [3] was inactive. The IC50 in assay [4] is 97.2 mg/L (≈ 184 µM).
Turning to `Nc1nn(Cc2cn(CC(=O)Nc3ccccc3)nn2)c2nc(-c3ccccc3)cc(C(F)(F)F)c12`, the outcome in the assay with U-937 and with B16-F10 [2] was inactive. In addition, the values for the IC50 with THP-1 [5] and with HL-60 [6] were 54.6 mg/L (≈ 111 µM) and 96.3 mg/L (≈ 196 µM), respectively.
In the case of `Nc1nn(Cc2cn(-c3ccc(F)c(Cl)c3)nn2)c2nc(-c3ccccc3)cc(C(F)(F)F)c12`, the outcome with THP-1 [1] and in the assay on B16-F10 [2] was inactive. Moreover, the IC50 with HL-60 [6] stood at 35 mg/L (≈ 71.8 µM); in assay [4], 99.1 mg/L (≈ 203 µM).
In the case of `Nc1nn(Cc2cn(CC(=O)Nc3c(F)cccc3F)nn2)c2nc(-c3ccccc3)cc(C(F)(F)F)c12`, the IC50 was 43.3 mg/L (≈ 81.9 µM) in the assay on THP-1 [5], 41.6 mg/L (≈ 78.7 µM) in the assay on B16-F10 [7], 32.8 mg/L (≈ 62 µM) with HL-60 [6] and 30.6 mg/L (≈ 58 µM) in assay [4].
As to `Nc1nn(Cc2cn(-c3cccc(Cl)c3)nn2)c2nc(-c3ccccc3)cc(C(F)(F)F)c12`, the result with THP-1 [1], with B16-F10 [2] and in the assay on HL-60 [3] was inactive.
Turning to `Nc1nn(Cc2cn(CC(=O)Nc3ccccc3Br)nn2)c2nc(-c3ccccc3)cc(C(F)(F)F)c12`, the outcome in the assay on U-937 and in the assay with B16-F10 [2] was inactive. Moreover, the IC50 in the assay with THP-1 [5] came to 95.3 mg/L (≈ 167 µM); with HL-60 [6], 27.2 mg/L (≈ 47.6 µM).
In the case of `COc1ccc(-n2cc(Cn3nc(N)c4c(C(F)(F)F)cc(-c5ccccc5)nc43)nn2)cc1`, the outcome with U-937, in the assay with THP-1 [1], in the assay with B16-F10 [2] and with HL-60 [3] was inactive.
As to `Nc1nn(Cc2cn(-c3ccc([N+](=O)[O-])cc3)nn2)c2nc(-c3ccccc3)cc(C(F)(F)F)c12`, the result with THP-1 [1], with B16-F10 [2] and with HL-60 [3] was inactive. The IC50 in assay [4] was found to be 98.8 mg/L (≈ 206 µM).
On to `CCCCn1cc(Cn2nc(N)c3c(C(F)(F)F)cc(-c4ccccc4)nc32)nn1`, for which the result in the assay on U-937 and with B16-F10 [2] was inactive. Further, the IC50 amounted to 46.1 mg/L (≈ 111 µM) in the assay with THP-1 [5] and 36.7 mg/L (≈ 88.4 µM) in the assay with HL-60 [6].
Regarding `CCCCCCn1cc(Cn2nc(N)c3c(C(F)(F)F)cc(-c4ccccc4)nc32)nn1`, the result in the assay on U-937, in the assay on THP-1 [1], in the assay with B16-F10 [2] and in the assay with HL-60 [3] was inactive.
With `Nc1nn(Cc2cn(-c3cccc(C(F)(F)F)c3)nn2)c2nc(-c3ccccc3)cc(C(F)(F)F)c12`, the result with U-937, in the assay on THP-1 [1], in the assay with B16-F10 [2] and with HL-60 [3] was inactive.
As to `Nc1nn(Cc2cn(-c3ccc(F)cc3)nn2)c2nc(-c3ccccc3)cc(C(F)(F)F)c12`, the outcome in the assay on U-937, in the assay with THP-1 [1], in the assay with B16-F10 [2] and in the assay on HL-60 [3] was inactive.
As to `Nc1nn(Cc2cn(CCC(F)(F)C(F)(F)C(F)(F)C(F)(F)C(F)(F)C(F)(F)F)nn2)c2nc(-c3ccccc3)cc(C(F)(F)F)c12`, the outcome in the assay on THP-1 [1] and with B16-F10 [2] was inactive. In addition, the results for the IC50 (with HL-60 [6]; in assay [4]) were 97.6 mg/L (≈ 138 µM) and 98.2 mg/L (≈ 139 µM), respectively.
With `Nc1nn(Cc2cn(-c3ccccc3)nn2)c2nc(-c3ccccc3)cc(C(F)(F)F)c12`, the outcome with U-937, with THP-1 [1], with B16-F10 [2] and in the assay on HL-60 [3] was inactive.
As to `COc1cc([C@@H]2c3cc4c(cc3[C@@H](O[C@@H]3O[C@@H]5CO[C@@H](C)O[C@H]5[C@H](O)[C@H]3O)[C@H]3COC(=O)[C@H]23)OCO4)cc(OC)c1O` [ETOPOSIDE], the IC50 in the assay with THP-1 [5] is 6.34 mg/L (≈ 10.8 µM); in the assay on B16-F10 [7] it was 3.8 mg/L (≈ 6.46 µM); in the assay on HL-60 [6], 2.13 mg/L (≈ 3.62 µM); in assay [4], 6.7 mg/L (≈ 11.4 µM).
Consider `Cc1ccc(NC(=O)Cn2cc(Cn3nc(N)c4c(C(F)(F)F)cc(-c5ccccc5)nc43)nn2)cc1`, for which the IC50 in the assay with THP-1 [5] is 41.5 mg/L (≈ 81.9 µM); in assay [4], 65.3 mg/L (≈ 129 µM). The outcome in the assay on B16-F10 [2] and in the assay with HL-60 [3] was inactive.
For the compound `Nc1nn(Cc2cn(CCC(F)(F)C(F)(F)C(F)(F)C(F)(F)C(F)(F)C(F)(F)C(F)(F)C(F)(F)F)nn2)c2nc(-c3ccccc3)cc(C(F)(F)F)c12`, the result with U-937, in the assay with THP-1 [1], in the assay with B16-F10 [2] and with HL-60 [3] was inactive.
Take `COc1ccc(NC(=O)Cn2cc(Cn3nc(N)c4c(C(F)(F)F)cc(-c5ccccc5)nc43)nn2)cc1`: the outcome in the assay on U-937, in the assay on B16-F10 [2] and with HL-60 [3] was inactive. Moreover, the IC50 with THP-1 [5] was 56.7 mg/L (≈ 109 µM).
In the case of `CCCCCCCCCCn1cc(Cn2nc(N)c3c(C(F)(F)F)cc(-c4ccccc4)nc32)nn1`, the 50% inhibitory concentration (IC50) in the assay with THP-1 [5] worked out at 48.7 mg/L (≈ 97.4 µM); with B16-F10 [7], 84.9 mg/L (≈ 170 µM); with HL-60 [6] it was 29.9 mg/L (≈ 59.8 µM); in assay [4], 27.1 mg/L (≈ 54.3 µM).
Consider `Nc1nn(Cc2cn(-c3ccc(O)c([N+](=O)[O-])c3)nn2)c2nc(-c3ccccc3)cc(C(F)(F)F)c12`, for which the IC50 in the assay on THP-1 [5] turned out to be 36.2 mg/L (≈ 73 µM); with B16-F10 [7], 42.3 mg/L (≈ 85.1 µM); in assay [4] it was 41.3 mg/L (≈ 83.1 µM).
With `Nc1nn(Cc2cn(CC(=O)Nc3cccc(F)c3)nn2)c2nc(-c3ccccc3)cc(C(F)(F)F)c12`, the IC50 in the assay on THP-1 [5] came to 99.5 mg/L (≈ 195 µM); in the assay with HL-60 [6] it was 63.9 mg/L (≈ 125 µM); in assay [4], 43.5 mg/L (≈ 85.3 µM). The outcome with B16-F10 [2] was inactive.
Regarding `Nc1nn(Cc2cn(CC(=O)Nc3ccc(F)cc3)nn2)c2nc(-c3ccccc3)cc(C(F)(F)F)c12`, the outcome with U-937 and in the assay with B16-F10 [2] was inactive. For the same compound, the values for the IC50 in the assay on THP-1 [5] and with HL-60 [6] were 49.5 mg/L (≈ 97.1 µM) and 44.8 mg/L (≈ 87.7 µM), respectively.
With `Nc1nn(Cc2cn(CC(=O)NC3CCCCC3)nn2)c2nc(-c3ccccc3)cc(C(F)(F)F)c12`, the IC50 with THP-1 [5] came out at 64.8 mg/L (≈ 130 µM); with B16-F10 [7], 99.1 mg/L (≈ 199 µM); in the assay on HL-60 [6] it was 42.9 mg/L (≈ 86.2 µM); in assay [4], 89 mg/L (≈ 179 µM).
For `Nc1nn(Cc2cn(CC(=O)Nc3ccc(F)cc3Br)nn2)c2nc(-c3ccccc3)cc(C(F)(F)F)c12`, the IC50 in the assay on THP-1 [5] was 65.6 mg/L (≈ 111 µM); in the assay with B16-F10 [7] it was 98 mg/L (≈ 166 µM); with HL-60 [6] it was 63.6 mg/L (≈ 108 µM); in assay [4], 98.3 mg/L (≈ 167 µM).
For `Nc1nn(Cc2cn(CC(=O)Nc3cccc(Cl)c3)nn2)c2nc(-c3ccccc3)cc(C(F)(F)F)c12`, the result with U-937, with B16-F10 [2] and in the assay on HL-60 [3] was inactive. Moreover, in the assay on THP-1 [5], the IC50 was 37 mg/L (≈ 70.3 µM).
In the case of `Cc1ccc(-n2cc(Cn3nc(N)c4c(C(F)(F)F)cc(-c5ccccc5)nc43)nn2)cc1`, the outcome in the assay with U-937, in the assay with B16-F10 [2] and with HL-60 [3] was inactive. Moreover, the IC50 in the assay on THP-1 [5] was 98.6 mg/L (≈ 219 µM).

As usually defined, the IC50 is the concentration at which inhibition is half-maximal.
